According to patent US20050112204A1, “Pharmaceutical formulations” (priority 2003, published 2005):
Converted amounts (≈) assume the structure as drawn.

Legend:
Format in all cases: physicochemical
[1] = aqueous solubility of voriconazole (previously measured data); conditions: water, aqueous buffer; pH 7; 22° C.
[2] = stability of voriconazole in water; conditions: an inactive enantiomer is formed from recombination of the retro-aldol products of hydrolysis
[3] = visual solubility of voriconazole in water and aqueous poloxamer F127 solutions (Example 2); conditions: for visual solubility in water: ambient conditions; for solubility: aqueous poloxamer F127 solution, aqueous with cosolvent or surfactant or cyclodextrin, thermodynamic from solid, read-out: soluble up to
Protocol: Voriconazole aqueous solutions of 0.5 and 1 mg/ml were prepared in water (20 ml). Corresponding aqueous solutions of 2, 3 and 4 mg/ml were prepared in aqueous poloxamer solutions (20 ml), as follows: The samples were prepared in 50 ml glass vials, and sonicated in an ultrasonic bath for 30 minutes. The solutions were allowed to cool, then visually assessed immediately and after 18 hours. The solubilization factor on the y-axis is a code for the level of solubility visually observed.

C[C@@H](c1ncncc1F)[C@](O)(Cn1cncn1)c1ccc(F)cc1F [voriconazole, (2R,3S)-2-(2,4-Difluorophenyl)-3-(5-fluoro-4-pyrimidinyl)-1-(1H-1,2,4-triazol-1-yl)-butan-2-ol]
solubility [1]: 610 µg/mL (≈ 1.75 mM) | stability in water [2]: not stable in water | visual solubility in water ([3]; 0.5 mg/ml in water): virtually complete solubility | visual solubility in water ([3]; 1 mg/ml in water): clearly insoluble | increase in solubility in comparison with water alone ([3]; 10% F127 solution): three to four fold | increase in solubility in comparison with water alone ([3]; 15% F127 solution): five to six fold | solubility ([3]; in 10% F127 solution): ≤ 2000 µg/mL | solubility ([3]; in 15% F127 solution): ≤ 3000 µg/mL
